Earlier results as cited in patent US20240360075A1, “N-SUBSTITUTED C6 CYCLYL CARBOXAMIDE COMPOUNDS AND USES THEREOF” (ALCON INC., priority 2023, published 2024).

Molecular target: TRPM8 (Mus musculus, UniProt Q8R4D5)
Settings: TRPV1 antagonists, described by Behrendt et al.; read-out: IC50 to block the response of TRPM8 to menthol; cited from earlier work

TRPM8 (Mus musculus, UniProt Q8R4D5), sequence (Q8R4D5 whole entry): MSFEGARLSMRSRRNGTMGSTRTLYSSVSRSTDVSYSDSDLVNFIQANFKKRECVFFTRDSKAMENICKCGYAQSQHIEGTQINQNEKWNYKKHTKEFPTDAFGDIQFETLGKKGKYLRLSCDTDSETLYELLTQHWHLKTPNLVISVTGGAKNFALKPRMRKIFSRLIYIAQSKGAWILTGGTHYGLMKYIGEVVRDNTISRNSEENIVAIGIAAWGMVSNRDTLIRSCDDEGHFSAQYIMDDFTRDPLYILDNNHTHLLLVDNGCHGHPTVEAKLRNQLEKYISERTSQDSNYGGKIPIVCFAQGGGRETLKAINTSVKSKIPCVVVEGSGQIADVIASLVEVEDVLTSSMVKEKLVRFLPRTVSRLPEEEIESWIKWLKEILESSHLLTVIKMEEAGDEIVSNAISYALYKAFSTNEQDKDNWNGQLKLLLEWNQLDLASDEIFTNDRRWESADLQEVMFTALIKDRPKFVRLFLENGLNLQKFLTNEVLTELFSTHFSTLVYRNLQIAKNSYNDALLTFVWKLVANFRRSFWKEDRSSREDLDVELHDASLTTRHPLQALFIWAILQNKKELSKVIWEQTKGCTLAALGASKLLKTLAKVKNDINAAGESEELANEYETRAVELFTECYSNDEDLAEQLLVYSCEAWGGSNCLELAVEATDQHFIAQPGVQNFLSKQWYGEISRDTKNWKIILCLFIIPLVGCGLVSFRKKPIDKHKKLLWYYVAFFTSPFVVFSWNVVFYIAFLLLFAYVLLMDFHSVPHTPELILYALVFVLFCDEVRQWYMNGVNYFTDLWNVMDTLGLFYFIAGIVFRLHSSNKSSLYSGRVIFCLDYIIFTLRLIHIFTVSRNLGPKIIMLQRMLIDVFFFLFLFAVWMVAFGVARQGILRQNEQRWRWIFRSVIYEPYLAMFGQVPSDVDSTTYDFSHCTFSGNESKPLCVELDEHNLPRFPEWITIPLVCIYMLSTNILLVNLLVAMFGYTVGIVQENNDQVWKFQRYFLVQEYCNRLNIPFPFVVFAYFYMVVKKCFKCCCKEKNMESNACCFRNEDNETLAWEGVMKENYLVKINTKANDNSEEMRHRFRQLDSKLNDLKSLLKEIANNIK

Row | SMILES | IC50 [µM]
1 | CC(C)(C)c1ccc(NC(=O)N2CCN(c3ncccc3Cl)CC2)cc1 [BCTC, 4-(3-Chloro-2-pyridinyl)-N-[4-(1,1-dimethylethyl)phenyl]-1-piperazinecarboxamide] | 0.8 ± 1
2 | Oc1cc2c(cc1O)CN(C(=S)NCCc1ccc(Cl)cc1)CCC2 [capsazepine] | 18 ± 1.1
3 | CC(C)(C)c1ccc(NC(=S)N2CCN(c3ncccc3Cl)CC2)cc1 [thio-BCTC] | 3.5 ± 1.1

Molecular target: T1, TRPM8 (Homo sapiens, UniProt Q7Z2W7)
T1 construct: purchased Eurofins (Cerep) item #3316
Settings: reported by the Eurofins website; cited from earlier work

T1 sequence (Q7Z2W7 whole entry): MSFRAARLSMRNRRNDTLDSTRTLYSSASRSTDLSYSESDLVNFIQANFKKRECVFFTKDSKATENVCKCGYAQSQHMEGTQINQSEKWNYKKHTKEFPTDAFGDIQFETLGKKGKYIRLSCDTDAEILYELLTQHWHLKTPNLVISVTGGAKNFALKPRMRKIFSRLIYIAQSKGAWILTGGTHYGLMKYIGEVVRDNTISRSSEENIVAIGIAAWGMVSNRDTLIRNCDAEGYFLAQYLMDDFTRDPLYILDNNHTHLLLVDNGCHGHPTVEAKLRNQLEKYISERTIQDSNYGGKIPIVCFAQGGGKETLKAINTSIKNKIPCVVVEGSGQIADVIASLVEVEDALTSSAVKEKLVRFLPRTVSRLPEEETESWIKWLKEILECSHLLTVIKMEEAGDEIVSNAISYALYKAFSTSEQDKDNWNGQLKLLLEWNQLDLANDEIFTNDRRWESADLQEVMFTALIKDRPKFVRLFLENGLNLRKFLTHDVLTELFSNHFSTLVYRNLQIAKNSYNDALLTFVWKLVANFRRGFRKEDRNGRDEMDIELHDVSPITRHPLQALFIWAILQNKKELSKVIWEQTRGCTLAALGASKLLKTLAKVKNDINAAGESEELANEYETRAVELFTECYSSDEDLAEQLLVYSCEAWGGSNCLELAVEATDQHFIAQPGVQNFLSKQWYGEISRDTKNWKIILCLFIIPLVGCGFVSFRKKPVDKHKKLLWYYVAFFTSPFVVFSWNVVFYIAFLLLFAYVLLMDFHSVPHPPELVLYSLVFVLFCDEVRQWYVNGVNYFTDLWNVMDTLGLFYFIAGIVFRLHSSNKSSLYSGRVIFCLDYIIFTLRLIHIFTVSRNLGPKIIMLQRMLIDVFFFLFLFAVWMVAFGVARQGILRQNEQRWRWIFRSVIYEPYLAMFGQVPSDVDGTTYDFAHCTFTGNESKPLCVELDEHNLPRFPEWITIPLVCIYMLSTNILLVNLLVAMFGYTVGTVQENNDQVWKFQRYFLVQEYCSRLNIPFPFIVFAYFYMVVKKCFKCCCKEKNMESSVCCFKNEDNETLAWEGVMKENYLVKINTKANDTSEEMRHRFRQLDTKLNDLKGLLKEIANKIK

Row | SMILES | EC50 [µM]
4 | O=C1NC(c2cccc([N+](=O)[O-])c2)=CCN1c1ccccc1O [icilin] | 0.028

Molecular target: mouse cold-menthol receptor TRPM8 (Mus musculus, UniProt Q8R4D5)
Settings: described by Behrendt et al.; cited from earlier work

mouse cold-menthol receptor TRPM8, sequence (Q8R4D5 whole entry): as the sequence (Q8R4D5 whole entry) above

Row | SMILES | EC50 [µM]
5 | CC1CCC(C(C)C)C(OCC(O)CO)C1 (stereo not shown) [cooling agent 10] | 6 ± 2.2
6 | CC12CCC(CC1)C(C)(C)O2 [eucalyptol] | 7700 ± 2000
7 | CC1CCC(C(C)C)C2(C1)OCC(CO)O2 (stereo not shown) [frescolatMAG] | 4.8 ± 1.1
8 | CC(C)=CCC/C(C)=C/CO [geraniol] | 5900 ± 1600
9 | CC(CC=O)CCCC(C)(C)O (stereo not shown) [hydroxycitronellal] | 19600 ± 2200
10 | C=CC(C)(O)CCC=C(C)C (stereo not shown) [linalool] | 6700 ± 2000
